From patent US20250353891A1 (MEDIMMUNE LIMITED, priority 2022, published 2025) come the findings set out here.

For orientation: EC50 means the concentration at which the effect is half-maximal.

Assay [1] addresses human GLP-1 receptor (hGLP-1R) (Homo sapiens, UniProt P43220). As to the kind of experiment: cAMP production (HTRF) in CHO cells expressing hGLP-1R. The conditions noted are these: for EC50: cAMP in CHO hGLP-1R cells, geometric mean, read-out: hGLP-1R EC50; for % Relative Potency Ratio: % GLP-1R activity relative to GLP-1 / % GlucR activity relative to glucagon. Also noted: expressed in transfected cells. It counts as cell-based. An outline of the steps:
(§1)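 Cells were resuspended in assay buffer at batch-optimized density, typically 1×10^5 cells/mL for hGLP-1R and 2×10^5 cells/mL for hGCGR. After 30 min incubation at room temperature with compound, cAMP was measured by two-step HTRF. EC50 values came from 4-parameter logistic fits of % Delta F.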
A general note: Changes in cAMP serve as a functional read-out for many G protein-coupled receptors.

For assay [2], the target named is human glucagon receptor (hGCGR) (Homo sapiens, UniProt P47871). Nature of the assay: cAMP production (HTRF) in CHO cells expressing hGCGR. The class given is cell-based. Also noted: expressed in transfected cells. The conditions noted are these: cAMP in CHO hGCGR cells, geometric mean, read-out: hGluc-R EC50. An outline of the steps:
as §1

The mark [3] stands for this setting: Table 7, peptides modified at position 20.
Setting [4] is: Table 6, peptides modified at position 17.

Read-outs that look alike come from different tables or passages of the source. Starred links: 1 amine or outer side, 2 acyl side, 3 side chain; linkers in the order of their positions; H or OH if unused. Non-standard residues stand in square brackets, D forms with d. Residues, ends and D or L forms follow the SMILES beside them. Groups on a side chain read outwards from the residue. *: point of attachment. C20 diacid = O=C(O)CCCCCCCCCCCCCCCCCCC(=O)*; C18 diacid = O=C(O)CCCCCCCCCCCCCCCCC(=O)*; γGlu = O=C(O)[C@H](CCC(=O)[*:2])N[*:1]; Stearoyl = CCCCCCCCCCCCCCCCCC(=O)*; αMeF = C[C@](N)(Cc1ccccc1)C(=O)O; αMeQ = C[C@](N)(CCC(N)=O)C(=O)O; αMeS = C[C@](N)(CO)C(=O)O; PEG2 = NCCOCCOCCC(=O)O; AEEA = NCCOCCOCC(=O)O; Aib = CC(C)(N)C(=O)O A value given as a limit tells only on which side of the number the result lay.

human GLP-1 receptor (hGLP-1R), sequence (P43220 24-463): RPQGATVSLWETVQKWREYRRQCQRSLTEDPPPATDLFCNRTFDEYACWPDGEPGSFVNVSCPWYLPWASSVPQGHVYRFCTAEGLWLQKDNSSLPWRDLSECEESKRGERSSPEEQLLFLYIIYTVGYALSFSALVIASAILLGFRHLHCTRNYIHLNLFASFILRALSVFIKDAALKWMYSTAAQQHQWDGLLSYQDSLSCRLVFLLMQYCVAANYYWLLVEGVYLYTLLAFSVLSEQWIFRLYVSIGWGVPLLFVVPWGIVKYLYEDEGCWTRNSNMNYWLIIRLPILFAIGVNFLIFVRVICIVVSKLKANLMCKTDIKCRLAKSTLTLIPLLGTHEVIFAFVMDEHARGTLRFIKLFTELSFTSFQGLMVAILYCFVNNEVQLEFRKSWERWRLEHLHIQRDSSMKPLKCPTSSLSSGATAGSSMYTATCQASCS
human glucagon receptor (hGCGR), sequence (P47871 26-477): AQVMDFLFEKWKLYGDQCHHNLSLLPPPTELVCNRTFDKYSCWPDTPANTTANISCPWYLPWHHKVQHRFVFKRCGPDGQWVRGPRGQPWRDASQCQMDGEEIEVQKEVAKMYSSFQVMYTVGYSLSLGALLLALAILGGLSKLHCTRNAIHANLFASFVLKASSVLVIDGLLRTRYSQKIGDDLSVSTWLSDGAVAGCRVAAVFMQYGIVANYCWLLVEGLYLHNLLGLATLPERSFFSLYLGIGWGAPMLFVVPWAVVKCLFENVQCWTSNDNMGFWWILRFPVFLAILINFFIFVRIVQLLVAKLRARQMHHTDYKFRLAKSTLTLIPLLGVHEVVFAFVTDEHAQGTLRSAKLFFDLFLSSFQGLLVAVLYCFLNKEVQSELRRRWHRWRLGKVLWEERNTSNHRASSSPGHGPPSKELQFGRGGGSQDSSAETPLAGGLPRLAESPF

With `CC[C@H](C)[C@H](NC(=O)C(C)(C)NC(=O)[C@H](CCC(N)=O)NC(=O)[C@@H](NC(=O)[C@](C)(Cc1ccccc1)NC(=O)[C@H](CC(=O)O)NC(=O)[C@H](CCCCNC(=O)COCCOCCNC(=O)COCCOCCNC(=O)CC[C@H](NC(=O)CCCCCCCCCCCCCCCCC(=O)O)C(=O)O)NC(=O)[C@H](C)NC(=O)[C@H](C)NC(=O)[C@H](CCCNC(=N)N)NC(=O)[C@H](CO)NC(=O)[C@H](CC(=O)O)NC(=O)[C@H](CC(C)C)NC(=O)[C@](C)(Cc1ccccc1)NC(=O)[C@H](CCCCN)NC(=O)[C@H](CO)NC(=O)[C@@H](NC(=O)[C@H](CC(=O)O)NC(=O)[C@H](CO)NC(=O)[C@@H](NC(=O)[C@](C)(Cc1ccccc1)NC(=O)[C@H](CO)NC(=O)CNC(=O)[C@](C)(CCC(N)=O)NC(=O)[C@H](CO)NC(=O)[C@@H](N)Cc1c[nH]cn1)[C@@H](C)O)C(C)C)C(C)C)C(=O)N[C@@H](C)C(=O)N[C@@H](CC(N)=O)C(=O)N[C@H](C(N)=O)[C@@H](C)O` [Peptide 323] (H-HS[αMeQ]GS[αMeF]TSDVSK[αMeF]LDSRAAK([AEEA-AEEA-γGlu-C18 diacid])D[αMeF]VQ[Aib]IANT-NH2), the figures for the EC50 in assay [1] (setting [3]) and in assay [2] (setting [3]) were 11.4 nM and over 25.6 nM, respectively.

`CC(C)C[C@H](NC(=O)[C@H](Cc1c[nH]c2ccccc12)NC(=O)[C@H](CCCNC(=N)N)NC(=O)[C@@H](NC(=O)[C@H](Cc1ccccc1)NC(=O)[C@H](CC(=O)O)NC(=O)[C@H](CCCNC(=N)N)NC(=O)[C@H](C)NC(=O)[C@H](CCCNC(=N)N)NC(=O)[C@H](CCCCNC(=O)COCCOCCNC(=O)COCCOCCNC(=O)CC[C@H](NC(=O)CCCCCCCCCCCCCCCCC(=O)O)C(=O)O)NC(=O)[C@H](CO)NC(=O)[C@H](CC(=O)O)NC(=O)[C@H](CC(C)C)NC(=O)[C@](C)(Cc1ccccc1)NC(=O)[C@H](CCCCN)NC(=O)[C@H](CO)NC(=O)[C@@H](NC(=O)[C@H](CC(=O)O)NC(=O)[C@H](CO)NC(=O)[C@@H](NC(=O)[C@H](Cc1ccccc1)NC(=O)[C@@H](NC(=O)CNC(=O)[C@H](CCC(N)=O)NC(=O)C(C)(C)NC(=O)[C@@H](N)Cc1c[nH]cn1)[C@@H](C)O)[C@@H](C)O)C(C)C)C(C)C)C(=O)N[C@@H](CC(C)C)C(=O)NC(C)(C)C(=O)N[C@H](C(=O)N[C@@H](CCC(=O)O)C(=O)O)[C@@H](C)O` [Peptide 166] (H-H[Aib]QGTFTSDVSK[αMeF]LDSK([AEEA-AEEA-γGlu-C18 diacid])RARDFVRWLL[Aib]TE-OH; N-terminus assumed): the values for the EC50 in assay [1] (setting [4]) and in assay [2] (setting [4]) were 0.048 nM and 0.27 nM, respectively. In assay [1] (Table 6), the “% Relative Potency Ratio” value is listed as 11.1.

`CC(C)C[C@H](NC(=O)[C@H](CC(C)C)NC(=O)[C@H](Cc1c[nH]c2ccccc12)NC(=O)[C@H](CCC(N)=O)NC(=O)[C@@H](NC(=O)[C@](C)(Cc1ccccc1)NC(=O)[C@H](CC(=O)O)NC(=O)[C@H](CCCNC(=N)N)NC(=O)[C@H](C)NC(=O)[C@H](CCCNC(=N)N)NC(=O)[C@H](CCCCNC(=O)COCCOCCNC(=O)COCCOCCNC(=O)CC[C@H](NC(=O)CCCCCCCCCCCCCCCCC(=O)O)C(=O)O)NC(=O)[C@@H](NC(=O)[C@H](CC(=O)O)NC(=O)[C@H](CC(C)C)NC(=O)[C@](C)(Cc1ccccc1)NC(=O)[C@H](CCCCN)NC(=O)[C@H](CO)NC(=O)[C@@H](NC(=O)[C@H](CC(=O)O)NC(=O)[C@H](CO)NC(=O)[C@@H](NC(=O)[C@](C)(Cc1ccccc1)NC(=O)[C@@H](NC(=O)CNC(=O)[C@H](CCC(N)=O)NC(=O)C(C)(C)NC(=O)[C@@H](N)Cc1c[nH]cn1)[C@@H](C)O)[C@@H](C)O)C(C)C)[C@@H](C)O)C(C)C)C(=O)N[C@@H](C)C(=O)NC(C)(C)C(=O)NCC(N)=O` [Peptide 513] (H-H[Aib]QGT[αMeF]TSDVSK[αMeF]LDTK([AEEA-AEEA-γGlu-C18 diacid])RARD[αMeF]VQWLLA[Aib]G-NH2): the EC50 in assay [1] (setting [4]) worked out at 0.0938 nM; in assay [2] (setting [4]) it was 1.34 nM. For the same compound, in assay [1] (Table 6), the “% Relative Potency Ratio” value was determined as 28.3.

Turning to `CC(C)C[C@H](NC(=O)[C@H](Cc1c[nH]c2ccccc12)NC(=O)[C@H](CCC(N)=O)NC(=O)[C@@H](NC(=O)[C@H](Cc1ccccc1)NC(=O)[C@H](CC(=O)O)NC(=O)[C@H](CCCNC(=N)N)NC(=O)[C@H](C)NC(=O)[C@H](CCCNC(=N)N)NC(=O)[C@H](CCCCNC(=O)COCCOCCNC(=O)COCCOCCNC(=O)CC[C@H](NC(=O)CCCCCCCCCCCCCCCCCCC(=O)O)C(=O)O)NC(=O)[C@@H](NC(=O)[C@H](CC(=O)O)NC(=O)[C@H](CC(C)C)NC(=O)[C@](C)(Cc1ccccc1)NC(=O)[C@H](CCCCN)NC(=O)[C@H](CO)NC(=O)[C@@H](NC(=O)[C@H](CC(=O)O)NC(=O)[C@H](CO)NC(=O)[C@@H](NC(=O)[C@H](Cc1ccccc1)NC(=O)[C@@H](NC(=O)CNC(=O)[C@H](CCC(N)=O)NC(=O)C(C)(C)NC(=O)[C@@H](N)Cc1c[nH]cn1)[C@@H](C)O)[C@@H](C)O)C(C)C)[C@@H](C)O)C(C)C)C(=O)N[C@@H](CC(C)C)C(=O)N[C@@H](CCC(=O)O)C(=O)NC(C)(C)C(=O)N[C@@H](CCCCN)C(N)=O` [Peptide 481] (H-H[Aib]QGTFTSDVSK[αMeF]LDTK([AEEA-AEEA-γGlu-C20 diacid])RARDFVQWLLE[Aib]K-NH2; N-terminus assumed), the EC50 in assay [1] (setting [4]) came to 0.0522 nM; in assay [2] (setting [4]), 0.35 nM. The “% Relative Potency Ratio” value in assay [1] (Table 6) came to 13.3.

In the case of `CCCCCCCCCCCCCCCCCC(=O)N[C@@H](CCC(=O)N[C@@H](CCC(=O)NCCOCCOCCC(=O)NCCOCCOCCC(=O)NCCCC[C@H](NC(=O)[C@H](CO)NC(=O)[C@H](CC(=O)O)NC(=O)[C@H](CC(C)C)NC(=O)[C@@H](NC(=O)[C@H](CCCCN)NC(=O)[C@H](CO)NC(=O)[C@@H](NC(=O)[C@H](CC(=O)O)NC(=O)[C@H](CO)NC(=O)[C@@H](NC(=O)[C@](C)(Cc1ccccc1)NC(=O)[C@H](CO)NC(=O)CNC(=O)[C@H](CCC(N)=O)NC(=O)[C@](C)(CO)NC(=O)[C@@H](N)Cc1c[nH]cn1)[C@@H](C)O)C(C)C)[C@@H](C)CC)C(=O)N[C@@H](C)C(=O)N[C@@H](C)C(=O)N[C@@H](CCC(N)=O)C(=O)N[C@@H](CC(=O)O)C(=O)N[C@@](C)(Cc1ccccc1)C(=O)N[C@H](C(=O)N[C@@H](CCC(N)=O)C(=O)NC(C)(C)C(=O)N[C@H](C(=O)N[C@H](C(=O)N[C@@H](CC(N)=O)C(=O)N[C@H](C(N)=O)[C@@H](C)O)[C@@H](C)CC)[C@@H](C)CC)C(C)C)C(=O)O)C(=O)O` [Peptide 130] (H-H[αMeS]QGS[αMeF]TSDVSKILDSK([PEG2-PEG2-γGlu-γGlu-Stearoyl])AAQD[αMeF]VQ[Aib]IINT-NH2; N-terminus assumed), the EC50 is 0.00109 nM in assay [1] (setting [4]) and 0.0329 nM in assay [2] (setting [4]). In assay [1] (Table 6), the “% Relative Potency Ratio” value turned out to be 59.9.

Take `CC[C@H](C)[C@H](NC(=O)C(C)(C)NC(=O)[C@H](CCC(N)=O)NC(=O)[C@@H](NC(=O)[C@H](Cc1ccccc1)NC(=O)[C@H](CC(=O)O)NC(=O)[C@H](CCCCNC(=O)COCCOCCNC(=O)COCCOCCNC(=O)CC[C@H](NC(=O)CC[C@H](NC(=O)CCCCCCCCCCCCCCCCC(=O)O)C(=O)O)C(=O)O)NC(=O)[C@H](C)NC(=O)[C@H](C)NC(=O)[C@H](CCCNC(=N)N)NC(=O)[C@H](CO)NC(=O)[C@H](CC(=O)O)NC(=O)[C@H](CC(C)C)NC(=O)[C@](C)(Cc1ccccc1)NC(=O)[C@H](CCCCN)NC(=O)[C@H](CO)NC(=O)[C@@H](NC(=O)[C@H](CC(=O)O)NC(=O)[C@H](CO)NC(=O)[C@@H](NC(=O)[C@](C)(Cc1ccccc1)NC(=O)[C@H](CO)NC(=O)CNC(=O)[C@H](Cc1c[nH]cn1)NC(=O)C(C)(C)NC(=O)[C@@H](N)Cc1c[nH]cn1)[C@@H](C)O)C(C)C)C(C)C)C(=O)N[C@@H](C)C(=O)N[C@@H](CC(N)=O)C(=O)N[C@H](C(=O)NCC(=O)NCC(N)=O)[C@@H](C)O` [Peptide 237] (H-H[Aib]HGS[αMeF]TSDVSK[αMeF]LDSRAAK([AEEA-AEEA-γGlu-γGlu-C18 diacid])DFVQ[Aib]IANTGG-NH2; N-terminus assumed): the values for the EC50 in assay [1] (setting [3]) and in assay [2] (setting [3]) were 0.0267 nM and 0.299 nM, respectively. In addition, the “% Relative Potency Ratio” value in assay [1] (Table 7) was determined as 22.1.

Regarding `CC(C)C[C@H](NC(=O)[C@H](Cc1c[nH]c2ccccc12)NC(=O)[C@H](CCC(N)=O)NC(=O)[C@@H](NC(=O)[C@H](Cc1ccccc1)NC(=O)[C@H](CC(=O)O)NC(=O)[C@H](CCC(N)=O)NC(=O)[C@H](C)NC(=O)[C@H](CCCNC(=N)N)NC(=O)[C@H](CCCCNC(=O)COCCOCCNC(=O)COCCOCCNC(=O)CC[C@H](NC(=O)CCCCCCCCCCCCCCCCC(=O)O)C(=O)O)NC(=O)[C@@H](NC(=O)[C@H](CC(=O)O)NC(=O)[C@H](CC(C)C)NC(=O)[C@](C)(Cc1ccccc1)NC(=O)[C@H](CCCCN)NC(=O)[C@H](CO)NC(=O)[C@@H](NC(=O)[C@H](CC(=O)O)NC(=O)[C@H](CO)NC(=O)[C@@H](NC(=O)[C@H](Cc1ccccc1)NC(=O)[C@@H](NC(=O)CNC(=O)[C@H](CCC(N)=O)NC(=O)C(C)(C)NC(=O)[C@@H](N)Cc1c[nH]cn1)[C@@H](C)O)[C@@H](C)O)C(C)C)[C@@H](C)O)C(C)C)C(=O)N[C@@H](CC(C)C)C(=O)NC(C)(C)C(=O)N[C@@H](CCC(=O)O)C(=O)O` [Peptide 483], the EC50 in assay [1] (setting [4]) worked out at 0.178 nM; in assay [2] (setting [4]) it was 0.169 nM. Moreover, the “% Relative Potency Ratio” value in assay [1] (Table 6) is given as 1.9.
